Experimental data from PMC4547777 (Angewandte Chemie (International ed. in English), 2015).

Target: Androgen Receptor (AR) (Homo sapiens, UniProt P10275)
Experiment: competition radioligand binding with [3H]-R1881

Androgen Receptor (AR), sequence (P10275 whole entry): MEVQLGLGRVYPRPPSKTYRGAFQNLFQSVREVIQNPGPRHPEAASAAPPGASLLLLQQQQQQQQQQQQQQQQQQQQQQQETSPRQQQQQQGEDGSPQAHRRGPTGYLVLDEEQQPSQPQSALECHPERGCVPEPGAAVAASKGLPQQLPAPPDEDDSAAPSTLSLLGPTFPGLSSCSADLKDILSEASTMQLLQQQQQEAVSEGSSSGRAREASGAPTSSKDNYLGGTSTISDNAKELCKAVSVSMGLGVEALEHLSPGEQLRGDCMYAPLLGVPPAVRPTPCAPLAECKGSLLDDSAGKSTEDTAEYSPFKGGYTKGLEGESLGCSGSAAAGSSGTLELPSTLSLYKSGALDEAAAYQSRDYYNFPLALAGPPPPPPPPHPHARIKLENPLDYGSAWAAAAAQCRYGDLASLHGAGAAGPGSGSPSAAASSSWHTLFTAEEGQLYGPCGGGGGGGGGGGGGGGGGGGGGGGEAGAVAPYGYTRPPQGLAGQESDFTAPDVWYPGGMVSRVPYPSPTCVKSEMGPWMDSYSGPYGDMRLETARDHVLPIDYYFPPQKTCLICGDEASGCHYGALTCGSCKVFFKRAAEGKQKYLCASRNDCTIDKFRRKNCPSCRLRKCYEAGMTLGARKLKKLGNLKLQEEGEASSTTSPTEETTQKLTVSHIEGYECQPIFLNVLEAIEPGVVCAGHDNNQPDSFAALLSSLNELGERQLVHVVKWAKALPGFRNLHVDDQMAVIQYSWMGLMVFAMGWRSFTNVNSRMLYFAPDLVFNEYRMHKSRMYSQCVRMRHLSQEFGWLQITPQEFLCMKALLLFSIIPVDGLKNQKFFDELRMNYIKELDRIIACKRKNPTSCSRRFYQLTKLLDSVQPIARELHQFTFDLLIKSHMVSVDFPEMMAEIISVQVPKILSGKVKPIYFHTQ

SMILES: CC1(C)C(=O)N(c2ccc(C#N)c(C(F)(F)F)c2)C(=S)N1CCCCO [RU59063]
- competition radioligand binding with [3H]-R1881 (parent ligand): competition radioligand binding assay using [^3H]-R1881 showed that appending of the adamantyl group to RU59063 reduced affinity
